Data published in US6372727B1, “Metalloporphyrin treatment of neurologic disease” (UAB Research Foundation, priority 1999, dated 2002).

Assays:
cultured motor neurons = experiment: Protection of cultured motor neurons from growth factor withdrawal; assay type: cell-based
Description: Culture Motor neurons were prepared from embryonic day 15 (E15) rat spinal cords by a combination of metrizamide gradient centrifugation and immunopanning with the monoclonal antibody IgG192 (Chandler et al., J. Biol. Chem. 259:6882-6889, 1984) as previously described (Estevez et al., J Neurosci 18:923-931, 1998; Henderson C E, Bloch-Gallego E, Camu W (1995): Purification and culture of embryonic motorneurons. In Cohen J, Wilkin G (eds): Neural Cell Culture: A Practical Approach. Oxford, England: IRL Press, pp 69-81). Long-term cultures of motor neurons were performed as described by Pennica et al. (Pennica et al., Neuron 17:63-74, 1996). Briefly, motor neurons were plated at a density of 200 cells/cm2 on 35 mm dishes precoated with polyornithine-laminin in Neurobasal medium supplemented with B27 (Life Technologies, Grand Island, N.Y.), 2% horse serum, 0.5 mM L-glutamine, 25 μM 2-mercaptoethanol and 25 μM L-glutamate. Every 3-4 days ¾ of the culture medium was replaced by fresh medium lacking L-glutamate and containing sufficient quantities of BDNF or FeTCPP to supplement the 2 ml of medium in the dish. More than 94% of the cells were immunoreactive for the p75 low-affinity neurotrophic receptor (p75NTR) and Islet ½, which are markers for motor neurons. The experiments were repeated at least 2 times using the same lot of Neurobasal medium and B 27 supplement.
The number of motor neurons with neurites longer than 4 soma diameters present in parallel cultures treated with BDNF at a final concentration of 100 pg/ml 24 h after plating or culture media replacement was considered 100% motor neuron survival. FeTCPP was resuspended in complete Neurobasal medium at a 5 mM concentration. Dilutions were performed of the stock solution to add 20 μl per dish.
Rat motor neurons survive many days in culture when brain-derived neurotrophic factor (BDNF) is added to the culture media. Because motor neurons are the cells that preferentially die in ALS, primary cultures of motor neurons represent the best non-animal model of ALS. Withdrawal of BDNF results in apoptotic death of >70% of motor neurons within 24 h. Cell death was correlated with expression of the neuronal form of nitric oxide synthase (nNOS) and the production of peroxynitrite, as evidenced by protein tyrosine nitration. When FeTCPP is added to the culture media in place of BDNF and motor neuron survival is assessed at 24 h, some protection is seen at concentrations as low as 0.01 μM (FIG. 10A). […] Additionally, a comparison of the effect of FETCPP and its tetra-methyl ester derivative, TMeO-FeTCPP, on motor neuron survival at 72 hr.

isolated hearts = experiment: Isolated hearts, ischemia and reperfusion
[1] = Spectral scans of peroxynitrite-oxidized Mn porphyrins and re-reduction of Mn(IV); assay type: biochemical
Description: The peaks at 428 nm (left arrows) are due to Mn(IV)=O (15) whereas the 464 nm peaks (right arrows) are due to Mn(III). […] INSET: The indicated amounts of peroxynitrite were added to solutions of MnTBAP (10 μM) in phosphate buffer and the decrease in 464 nm absorbance was monitored at a data collection rate of 10 points/s. The maximal change in 464 nm absorbance associated with oxidation of Mn(III) to Mn(IV), which occurred in >1 s, was plotted versus peroxynitrite; the concentration at which no further absorbance change occurred was used to establish the reaction stoichiometry.

Row | Structure (SMILES) | survival of cultured motor neurons deprived of growth factors (cultured motor neurons) | long-term motor neuron survival compared with BDNF (cultured motor neurons; 0.1 μM and 1.0 μM) | maximal cell survival (cultured motor neurons; 0.1 μM, 24 h, in place of BDNF, 100% = BDNF 100 pg/ml) | cell survival (cultured motor neurons; 100 μM, 24 h, in place of BDNF) | dose-response for survival of motor neurons at 72 h (cultured motor neurons; 72 h) | lowest concentration at which some protection is seen (cultured motor neurons; added in place of BDNF, survival at 24 h) | cell survival at day 16 (cultured motor neurons; lower dose (0.1 μM), long-term culture) | toxicity to motor neurons (cultured motor neurons; relatively high concentrations, 100 μM) | protection of isolated hearts (isolated hearts) | time to complete re-reduction to Mn(III) ([1]; 10 μM MP, peroxynitrite 20 μM alone) | time to complete re-reduction to Mn(III) ([1]; 50 μM H2O2 added before peroxynitrite) | time to complete re-reduction to Mn(III) ([1]; 50 μM nitrate added before peroxynitrite) | time to complete re-reduction to Mn(III) ([1]; 50 μM nitrite added before peroxynitrite) | time to complete re-reduction to Mn(III) ([1]; H2O2 and nitrate or H2O2 and nitrite added together)
1 | O=C(O)c1ccc(-c2c3nc(c(-c4ccc(C(=O)O)cc4)c4ccc([n-]4)c(-c4ccc(C(=O)O)cc4)c4nc(c(-c5ccc(C(=O)O)cc5)c5ccc2[n-]5)C=C4)C=C3)cc1.[Fe+2] [FeTCPP, Iron (III) meso 5,10,15,20-tetrakis-(4-carboxy-phenyl) porphyrin] | prolong survival of cultured motor neurons | as effective as BDNF | 90% | 90% | virtually identical to the 24 h survival results | 0.01 µM | 90% | not toxic | protects isolated hearts from the injurious effects of ischemia and reperfusion |  |  |  |  | 
2 | C[n+]1ccc(-c2c3nc(c(-c4cc[n+](C)cc4)c4ccc([n-]4)c(-c4cc[n+](C)cc4)c4nc(c(-c5cc[n+](C)cc5)c5ccc2[n-]5)C=C4)C=C3)cc1.[Cl-].[Cl-].[Cl-].[Cl-].[Cl-].[Mn+3] [MnTMPyP, Manganese (III) meso-tetra-(N-methyl-4-pyridyl)-porphine chloride] |  |  |  |  |  |  |  |  |  | 30 s | 17 s | 74 s | 30 s | 17 s
